Values joined by “and” are separate entries in the source; they are usually repeats but may differ in a detail not shown here. Equal values may be shown once.
Test system: German cockroaches (Blatella Germanica)
Test: Cockroach repellency on partially treated melamine-formaldehyde laminate surface (harbourage choice test)
Format: in vivo
Conditions: 20 mg/m^2; for Percentage Present on treated section, Average / Percentage Present on untreated section, Average: Average of days 1, 2, 3; for Number of Cockroaches present, Treated Section / Number of Cockroaches present, Untreated Section / Number of Cockroaches, Dead: single replicate, n = 20; for Number of Cockroaches present, Treated Section, Total of 4 replicates / Number of Cockroaches present, Untreated Section, Total of 4 replicates / Number of Cockroaches, Dead, Total of 4 replicates: total of 80
Description: The effectiveness of compounds of formula I as insect repellents is determined using German cockroaches exposed to a melamine-formaldehyde laminate surface partially treated/partially untreated with a test compound of formula I.
The study was conducted in an air-conditioned laboratory at a temperature of 22°±2° ° C. under a normal day/night cycle, using German cockroaches (Blatella Germanica) of mixed sex and age. The study was conducted over a 3 day period and the repellent effectiveness was assessed 1, 2 and 3 days after cockroach introduction.
One half of a rectangle of laminate 40 cm×30 cm was treated at 20 mg/m^2 of a test compound of formula I. This was achieved by soaking a paper wipe (“Rag on a Roll” ca 20 cm×20 cm) in a solution of the test compound in ethanol, squeezing out the excess liquid and wiping over the surface to give the required coverage. This was checked by weighing the cloth after application. The surface was allowed to dry. The other half of the rectangle was wiped with ethanol alone (untreated surface).
The treated laminate rectangle was placed on the bench and a plastic container was placed on the rectangle. This had been treated with “Fluon” (trade mark), a sprayable fluoropolymer, to prevent cockroach escape.
Two sheets of laminate (10 cm×10 cm) were placed on the laminate, one on the treated surface and one on the untreated surface. This acted as a cockroach harbourage. The laminate sheet to be used in the treated section was treated at the same rate as the treated laminate. The laminate was placed on two 1 cm high bottle tops to allow cockroaches access under the laminate.
20 German cockroaches were added (5 adults and 15 nymphs) to the centre of the laminate. No food and water was supplied for these cockroaches.
At 1, 2 and 3 days after cockroach introduction the number of cockroaches under each harbourage was counted. After each count the harbourage position was changed to avoid the possibility of habituation to one location, the harbourages were replaced and new cockroaches were added to replace any dead cockroaches.
The above was repeated 3 times to provide a total of 4 replicates.
The methodology of Example 2 was repeated for all of the compounds set forth in Example 1.

[1] = 1 day after cockroach introduction
[2] = 2 days after cockroach introduction
[3] = 3 days after cockroach introduction

Compound	Percentage Present on treated section (1 day after treatment)	Percentage Present on untreated section (1 day after treatment)	Percentage Present on treated section (2 days after treatment)	Percentage Present on untreated section (2 days after treatment)	Percentage Present on treated section (3 days after treatment)	Percentage Present on untreated section (3 days after treatment)	Percentage Present on treated section, Average	Percentage Present on untreated section, Average	other results
CCN(CC)C(=O)O[C@@H]1C[C@H](C)CC[C@H]1C(C)C	7.6%	92.4%	2.5%	97.5%	2.5%	97.5%	4.2%	95.8%	
CC(C)[C@@H]1CC[C@@H](C)C[C@H]1OC(=O)Nc1ccccc1	2.5%	97.5%	3.7%	96.3%	2.5%	97.5%	2.9%	97.1%	
CC(C)[C@@H]1CC[C@@H](C)C[C@H]1OC(=O)N1CCCC1	2.5%	97.5%	7.5%	92.5%	12.7%	87.3%	7.6%	92.4%	
CC(C)[C@@H]1CC[C@@H](C)C[C@H]1OC(=O)N1CCOCC1	17.5%	82.5%	17.5%	82.5%	25.0%	75.0%	20.0%	80.0%	
CC(C)[C@@H]1CC[C@@H](C)C[C@H]1OC(=O)N1CCCCC1	10.0%	90.0%	11.3%	88.7%	3.9%	96.1%	8.4%	91.6%	
CC(C)CNC(=O)O[C@@H]1C[C@H](C)CC[C@H]1C(C)C	31.3%	68.7%	17.5%	82.5%	16.3%	83.7%	21.7%	78.3%	
CCCCNC(=O)O[C@@H]1C[C@H](C)CC[C@H]1C(C)C	6.3%	93.7%	17.5%	82.5%	7.5%	92.5%	10.5%	89.6%	
COC(=O)CCNC(=O)O[C@@H]1C[C@H](C)CC[C@H]1C(C)C	11.4%	88.6%	2.5%	97.5%	10.0%	90.0%	8.0%	92.0%	
CNC(=O)O[C@@H]1C[C@H](C)CC[C@H]1C(C)C [Methyl-Carbamic Acid (−)-Menthyl Ester, Methyl-carbamic acid (−)-menthyl ester]									Number of Cockroaches present, Treated Section [1]: 0 (2×) and 3 and 1; Number of Cockroaches present, Untreated Section [1]: 20 and 19 (2×) and 17; Number of Cockroaches, Dead [1]: 0 (3×) and 1; Number of Cockroaches present, Treated Section, Total of 4 replicates [1]: 4; Number of Cockroaches present, Untreated Section, Total of 4 replicates [1]: 75; Number of Cockroaches, Dead, Total of 4 replicates [1]: 1; Number of Cockroaches present, Treated Section [2]: 1 (2×) and 0 (2×); Number of Cockroaches present, Untreated Section [2]: 19 (3×) and 20; Number of Cockroaches, Dead [2]: 0 (3×) and 1; Number of Cockroaches present, Treated Section, Total of 4 replicates [2]: 2; Number of Cockroaches present, Untreated Section, Total of 4 replicates [2]: 77; Number of Cockroaches, Dead, Total of 4 replicates [2]: 1; Number of Cockroaches present, Treated Section [3]: 0 (3×) and 1; Number of Cockroaches present, Untreated Section [3]: 20 (3×) and 19; Number of Cockroaches, Dead [3]: 0; Number of Cockroaches present, Treated Section, Total of 4 replicates [3]: 1; Number of Cockroaches present, Untreated Section, Total of 4 replicates [3]: 79; Number of Cockroaches, Dead, Total of 4 replicates [3]: 0
CNC(=O)O[C@@H]1C[C@H](C)CC[C@H]1C(C)C [drawing 13]	5.1%	94.9%	2.5%	97.5%	1.3%	98.7%	3.0%	97.0%	

— patent US20060063764A1, “Insect repellents” (Givaudan SA, priority 2002, published 2006)
